Measurements taken from patent publication US20060189679A1, “C10 cyclopropyl ester substituted taxane compositions” (priority 2005, published 2006).
“And” between values parts separate entries of the source, which are not always exact repeats. Equal values may be shown once. Read-outs that look alike come from different tables or passages of the source.

What was measured:
[1] = tested on: HCT-116 colon carcinoma cells; assay: In vitro cytotoxic activity (MTT, 72 hr); format: cell-based, human; details: unit not given (dilutions in nM), read-out: In Vitro Antitumor Activity (IC50)
[2] = tested on: LnCaP prostate carcinoma cells; assay: In vitro cytotoxic activity (MTT, 72 hr); format: cell-based, human; details: unit not given (dilutions in nM), read-out: In Vitro Antitumor Activity (IC50)
[3] = tested on: DLD-1 multi-drug resistant human colon carcinoma xenografts; details: for MDS to 2.0 g ± SEM (n): DLD1-e07 study; for antitumor activity: DLD e07, optimum dose, route (IV) and schedule; for # Death NTR (Non-Treatment Related) / # Death TR (Treatment Related): mouse, in vivo
[4] = tested on: SW480 human colon carcinoma xenografts; details: mouse, in vivo; for controlling tumor growth compared to the lower doses of compound 3102: iv
[5] = tested on: DLD-1 resistant colon carcinoma cells (overexpresses p-glycoprotein); assay: In vitro cytotoxic activity (MTT, 72 hr); format: cell-based, human; details: DLD-1, colon, p-glycoprotein resistance, unit not given (dilutions in nM), read-out: In Vitro Antitumor Activity (IC50)
[6] = tested on: HT-29 colon carcinoma cells; assay: In vitro cytotoxic activity (MTT, 72 hr); format: cell-based, human; details: unit not given (dilutions in nM), read-out: In Vitro Antitumor Activity (IC50)
[7] = tested on: 786-0 human renal carcinoma xenografts; details: for Median survival / Median survival Ratio: iv
[8] = tested on: HCT116 human colon carcinoma cells; assay: Cell cycle and apoptotic analyses (propidium iodide flow cytometry); format: cell-based; details: HCT-116 cells, 24 hr exposure
[9] = tested on: 1A9 ovarian carcinoma cells; assay: In vitro cytotoxic activity (MTT, 72 hr); format: cell-based, human; details: unit not given (dilutions in nM), read-out: In Vitro Antitumor Activity (IC50)
[10] = tested on: PC-3 prostate carcinoma cells; assay: In vitro cytotoxic activity (MTT, 72 hr); format: cell-based, human; details: unit not given (dilutions in nM), read-out: In Vitro Antitumor Activity (IC50)
[11] = tested on: 1A9-PTX22 paclitaxel resistant ovarian carcinoma cells (tubulin mutation); assay: In vitro cytotoxic activity (MTT, 72 hr); format: cell-based, human; details: for IC50: 1A9-PTX22, ovarian, tubulin mutation, MTT 72 hr, unit not given (dilutions in nM), read-out: In Vitro Antitumor Activity (IC50)
[12] = tested on: 1A9-PTX10 paclitaxel resistant ovarian carcinoma cells (tubulin mutation); assay: In vitro cytotoxic activity (MTT, 72 hr); format: cell-based, human; details: for IC50: 1A9-PTX10, ovarian, tubulin mutation, MTT 72 hr, unit not given (dilutions in nM), read-out: In Vitro Antitumor Activity (IC50)
[13] = tested on: PANC-1 pancreatic adenocarcinoma cells; assay: In vitro cytotoxic activity (MTT, 72 hr); format: cell-based, human; details: unit not given (dilutions in nM), read-out: In Vitro Antitumor Activity (IC50)
[14] = Toxicity profile on oral and IV dosing in rats; details: dosed both orally and IV
[15] = IV QWK × 3 25 mg/kg vs 5% EC in Saline PO Q4D × 4
[16] = IV QWK × 3 30 mg/kg vs 5% EC in Saline PO Q4D × 4
[17] = Homo sapiens, Ovarian carcinoma cell

docetaxel
IC50 [1]: 0.9 nM
IC50 [2]: 1.9 nM
MDS to 2.0 g ± SEM (n) ([3]; 25 mg/kg IV Q7D × 3): 35.0 ± 2.3
MDS to 2.0 g ± SEM (n) ([3]; 30 mg/kg IV Q7D × 3): 37.6 ± 6.5
antitumor activity [3]: failed to demonstrate significant antitumor activity against DLD-1 tumors
# Death NTR (Non-Treatment Related) [3]: 0
# Death TR (Treatment Related) [3]: 0
MDS to 2.0 g ± SEM (n) [4]: 29.0 ± 7.8 and 32.4 ± 4.1
non-treatment related death [4]: one
non-treatment related deaths [4]: two
treatment related death [4]: one
controlling tumor growth compared to the lower doses of compound 3102 [4]: as effective or slightly less effective in controlling tumor growth
IC50 [5]: 9.2 nM
IC50 [6]: 1.2 nM
Hazard Ratio [7, 15]: 2.967
Logrank Test Chi square [7, 15]: 4.859
Hazard Ratio [7, 16]: 3.39
Logrank Test Chi square [7, 16]: 5.271
# Death TR (Treatment Related) ([7]; mouse, in vivo): 0
MDS to 2.0 g ± SEM (n) ([7]; mouse, in vivo): 52.1 ± 4.7 and 49.3 ± 4.3
slowing of tumor growth vs vehicle control (statistical analysis, words) ([7]; mouse, in vivo): able to slow 786-0 tumor growth compared to the vehicle control
Are the survival curves sig different? ([7]; mouse, in vivo, 25 mg/kg): Yes
Are the survival curves sig different? ([7]; mouse, in vivo, 30 mg/kg): Yes
Median survival ([7]; mouse, in vivo, 25 mg/kg): 52.7
Median survival Ratio ([7]; mouse, in vivo, 25 mg/kg): 0.704
Median survival ([7]; mouse, in vivo, 30 mg/kg): 52
Median survival Ratio ([7]; mouse, in vivo, 30 mg/kg): 0.7135
Apoptotic (percentage of cells in sub G1 peak) ([8]; 10 nM): 44.1%
G1 (percentage of cells) ([8]; 10 nM): 10.4%
G2/M (percentage of cells) ([8]; 10 nM): 17.1%
S (percentage of cells) ([8]; 10 nM): 25.4%
Apoptotic (percentage of cells in sub G1 peak) ([8]; 100 nM): 14.4%
G1 (percentage of cells) ([8]; 100 nM): 4.0%
G2/M (percentage of cells) ([8]; 100 nM): 68.0%
S (percentage of cells) ([8]; 100 nM): 11.6%
IC50 [9]: 1.8 nM
IC50 [10]: 2.8 nM
IC50 [11]: 8.5 nM
IC50 [12]: 7 nM
IC50 [13]: 2 nM

CC(=O)O[C@H]1C(=O)[C@@]2(C)[C@H]([C@H](OC(=O)c3ccccc3)[C@]3(O)C[C@H](OC(=O)[C@H](O)[C@@H](NC(=O)c4ccccc4)c4ccccc4)C(C)=C1C3(C)C)[C@]1(OC(C)=O)CO[C@@H]1C[C@@H]2O [Paclitaxel, paclitaxel]
IC50 ([2]; Homo sapiens): 3.1 nM
MDS to 2.0 g ± SEM (n) ([3]; 30 mg/kg IV QOD × 5): 40.2 ± 4.7
antitumor activity [3]: failed to demonstrate significant antitumor activity against DLD-1 tumors
# Death NTR (Non-Treatment Related) [3]: 0
# Death TR (Treatment Related) ([3]; nude): 0
# Death NTR (Non-Treatment Related) [4]: 0
# Death TR (Treatment Related) [4]: 0
MDS to 2.0 g ± SEM (n) [4]: 26.2 ± 3.0
controlling tumor growth compared to the lower doses of compound 3102 [4]: as effective or slightly less effective in controlling tumor growth
IC50 ([5]; Homo sapiens): > 10 nM
IC50 ([6]; Homo sapiens): 2.6 nM
slowing of tumor growth vs control (statistical analysis, words) ([7]; 786-0 e89, optimum dose, route (IV) and schedule): did not appear to significantly slow the growth of tumors compared to control
Logrank Test Chi square ([7]; IV QOD × 5 30 mg/kg vs 5% EC in Saline PO Q4D × 4): 3.414
# Death NTR (Non-Treatment Related) ([7]; mouse, in vivo): 0
# Death TR (Treatment Related) ([7]; mouse, in vivo): 0
Day of Max. % BW Loss ([7]; mouse, in vivo): Day 13
MDS to 2.0 g ± SEM (n) ([7]; mouse, in vivo): 40.0 ± 6.6
Max. % BW Loss ([7]; mouse, in vivo): −7.6%;
Are the survival curves sig different? ([7]; mouse, in vivo, 30 mg/kg): No
Median survival ([7]; mouse, in vivo, 30 mg/kg): 51.15
Apoptotic (percentage of cells in sub G1 peak) ([8]; 10 nM): 24.0%
G1 (percentage of cells) ([8]; 10 nM): 31.1%
G2/M (percentage of cells) ([8]; 10 nM): 17.8%
S (percentage of cells) ([8]; 10 nM): 25.0%
Apoptotic (percentage of cells in sub G1 peak) ([8]; 100 nM): 15.3%
G1 (percentage of cells) ([8]; 100 nM): 7.0%
G2/M (percentage of cells) ([8]; 100 nM): 67.2%
S (percentage of cells) ([8]; 100 nM): 9.4%
IC50 [9, 17]: 2.5 nM
IC50 ([10]; Homo sapiens): 4.1 nM
IC50 ([11]; Homo sapiens, 1A9/ptx-22): > 30 nM
IC50 ([12]; Homo sapiens, 1A9/ptx-10): > 40 nM
IC50 ([13]; Homo sapiens): 4.2 nM

CC(=O)O[C@@]12CO[C@@H]1C[C@H](O)[C@@]1(C)C(=O)[C@H](OC(=O)C3CC3)C3=C(C)[C@@H](OC(=O)[C@H](O)[C@@H](NC(=O)OCC(C)C)c4ccco4)C[C@@](O)([C@@H](OC(=O)c4ccccc4)C12)C3(C)C (stereo partly drawn) [Compound 3102]
IC50 ([1]; Homo sapiens): 0.9 nM
IC50 ([2]; Homo sapiens): 2.6 nM
MDS to 2.0 g ± SEM (n) ([3]; 30 mg/kg IV Q4D × 4): 45.3 ± 4.6
MDS to 2.0 g ± SEM (n) ([3]; 50 mg/kg PO Q4D × 4): 47.1 ± 3.9
MDS to 2.0 g ± SEM (n) ([3]; 70 mg/kg PO Q4D × 4): 46.1 ± 3.5
MDS to 2.0 g ± SEM (n) ([3]; 80 mg/kg PO Q4D × 4): 53.8±
treatment related death [4]: One
IC50 ([5]; Homo sapiens): 1.9 nM
IC50 ([6]; Homo sapiens): 1.2 nM
Logrank Test Chi square ([7]; IV Q4D × 4 30 mg/kg vs 5% EC in Saline PO Q4D × 4): 5.459
Logrank Test Chi square ([7]; PO Q4D × 4 50 mg/kg vs 5% EC in Saline PO Q4D × 4): 1.972
Logrank Test Chi square ([7]; PO Q4D × 4 70 mg/kg vs 5% EC in Saline PO Q4D × 4): 0.2502
Logrank Test Chi square ([7]; PO Q4D × 4 80 mg/kg vs 5% EC in Saline PO Q4D × 4): 5.234
Apoptotic (percentage of cells in sub G1 peak) ([8]; 10 nM): 24.4%
G1 (percentage of cells) ([8]; 10 nM): 20.1%
G2/M (percentage of cells) ([8]; 10 nM): 27.3%
S (percentage of cells) ([8]; 10 nM): 23.9%
Apoptotic (percentage of cells in sub G1 peak) ([8]; 100 nM): 11.7%
G1 (percentage of cells) ([8]; 100 nM): 7.0%
G2/M (percentage of cells) ([8]; 100 nM): 74.0%
S (percentage of cells) ([8]; 100 nM): 7.1%
IC50 [9, 17]: 1.6 nM
IC50 ([10]; Homo sapiens): 1.8 nM
potency compared to that of paclitaxel ([11]; 1A9-PTX22 (sentence covers 1A9-PTX10 and 1A9-PTX22)): 4 to 8 fold
IC50 ([11]; Homo sapiens, 1A9/ptx-22): 8.5 nM
potency compared to that of paclitaxel ([12]; 1A9-PTX10 (sentence covers 1A9-PTX10 and 1A9-PTX22)): 4 to 8 fold
IC50 ([12]; Homo sapiens, 1A9/ptx-10): 5.2 nM
IC50 ([13]; Homo sapiens): 1.8 nM
toxicity profile [14]: favorable toxicity profile
